Measurements published in patent US20230033911A1, “BIOACTIVE COMPOSITIONS AND METHODS OF USE THEREOF” (Ingenious Ingredients, LP, priority 2021, published 2023).

Key:
Assay type in all cases: in vivo
Swiss Albino mice [1] = test: Force swim test, paraxanthine plus tyrosine study (Example 2); conditions: oral once a day for 28 days; for Duration of mobility/active swimming: 30 min force swim on 28th day, n=8
Description: (§1) Thirty-two 8-week-old male Swiss Albino mice were housed in an animal room at a constant temperature (22±3° C.) and humidity (30%-70%) under a 12:12 h light-dark cycle with standard laboratory diet (Purina 5L79, Rat and Mouse 18% protein; PMI Nutrition International, Brentwood, Mo., USA). Distilled water was provided ad libitum. All animal experiments were reviewed and approved by the Institutional Animal Ethical Committee (IAEC) of Radiant Research Services Pvt. Ltd (Bangalore, India). All research was conducted in accordance with the guidelines of the committee for the purpose of control and supervision of experiments on animals.
(§2) After one week of acclimation, the animals were randomly divided by body weight into four groups (n=8 per group in each test) for oral treatment once a day, at approximately same time each day (±1 hour), for 28 consecutive days: (1) vehicle control or (2) paraxanthine or (3) tyrosine or (4) tyrosine plus paraxanthine. The dose administered to the mice was calculated using US Food and Drug Administration for human equivalence doses (HED), assuming a human weight of 60 kg. The following HED was used in this study: 100 mg paraxanthine (ENFINITY®, Ingenious Ingredients, L.P Lewisville, Tex., USA; mouse dose: 20.5 mg/kg bw/day) or 500 mg tyrosine (mouse dose: 102.75 mg/kg bw/day), or 500 mg tyrosine (mouse dose: 102.75 mg/kg bw/day) plus 100 mg paraxanthine (ENFINITY®, Ingenious Ingredients, L.P Lewisville, Tex., USA; mouse dose: 20.5 mg/kg bw/day). 0.5% Carboxy Methyl Cellulose sodium was used as vehicle and the test item formulations were prepared daily. Dosing was conducted via oral gavage using disposable polypropylene syringes with sterilized stainless steel gavage tubes. Food intake was monitored daily while water intake was ad libitum.
During treatment period, training was accomplished on a swimming chamber at a moderate room temperature for 15 mins. […] The parameters measured were total time spent in active swimming (the total duration during which the animal swims throughout the experimental period).

Swiss Albino mice [2] = test: Force swim test, paraxanthine plus taurine study (Example 3); conditions: 30 min force swim on 28th day; oral once a day for 28 days; n=8
Description: as §1, with “Twenty-four” for “Thirty-two”
as §2, with “into three” for “into four”, “(1) paraxanthine” for “(1) vehicle control”, “(2) taurine” for “(2) paraxanthine”, “(3) taurine” for “(3) tyrosine or (4) tyrosine”, “mg taurine” for “mg tyrosine”
During treatment period, training was accomplished on a swimming chamber at a moderate room temperature for 15 mins. The animals were adapted to this procedure daily 1 hr after dosing for 5 days in a week during the treatment period. On 28th day of respective treatment of all the animals were subjected to force swim test. Animals were forced to swim individually for 30 min in a glass jar of height 20 cm, diameter 10 cm, and filled with fresh water to a depth of 15 cm at room temperature. The parameter measured was total time spent in active swimming (the total duration during which the animal swims throughout the experimental period) and duration of immobility (the total time during which the animal is immobile).

Swiss Albino mice [3] = test: Cook's pole climbing test after scopolamine-induced amnesia; conditions: for Escape latency: Cook's pole climbing test, scopolamine i.p., n=8; for Escape latency, faster than control: relative to vehicle control
Description: Behavioral studies were conducted in mice to examine the learning and memory ability by using Cook's pole test.
as §1
as §2, with “7” for “28”
Mice were trained in such a way that the animal had to climb the pole (shock free zone) within 30 seconds to avoid a shock. The shock was preceded by a buzzer that lasted for 15 seconds. The animals were trained to climb the pole at the sound of the buzzer (conditioned avoidance response). At particular intervals, 20 trials were given for each animal and average of the shock avoidance and mistakes were recorded. Trained animals were assayed by conditioned avoidance responses.
Amnesia was induced by using the scopolamine injection. Scopolamine is an anti-cholinergic and is an attractive amnesic agent for discerning the action of candidate anti amnesic drugs. Scopolamine is a non-selective post synaptic muscarinic receptor blocker and can cause cognitive impairments in rodents and humans via decreasing the effectiveness of ACH in the CNS in animals and humans. Scopolamine can induce the significant deficits in cognitive performance on behavioral tests which makes it a valid pharmacological model for inducing cognitive deficits. In this study to evaluate the cognitive effect, the mice were injected with scopolamine intraperitoneally to induce memory deficits.

Swiss Albino mice [4] = test: Forelimb grip strength test; conditions: oral once a day for 28 days; measured on day 0 and day 28, one hour after treatment
Description: as §1
After one week of acclimation, the animals were randomly divided by body weight into four groups (n=8 per group in each test) for oral treatment once a day, at approximately same time each day (±1 hour), for 28 consecutive days: (1) vehicle control or (2) paraxanthine or (3) tyrosine or (4) tyrosine plus paraxanthine. The dose administered to the mice was calculated using US Food and Drug Administration for human equivalence doses (HED), assuming a human weight of 60 kg. […] Food intake was monitored daily while water intake was ad libitum.
The forelimb grip strength was measured on day 0 and day 28 by using a stainless-steel grill to assess muscle strength (Orchid Scientific & Innovative India Pvt Ltd, India). Grip strength was measured one hour after treatment. […]

| Structure (SMILES) | Duration of mobility/active swimming (Swiss Albino mice [1]) [min] | Energy and mood (in words) (Swiss Albino mice [1]; force swim test on 28th day) | Duration of immobility (Swiss Albino mice [2]) [min] | Duration of mobility/active swimming (Swiss Albino mice [2]) [min] | Escape latency (Swiss Albino mice [3]; oral once a day for 7 days) [s] | Effect on scopolamine-induced amnesia, memory and learning (in words) (Swiss Albino mice [3]; oral once a day for 7 days) | Escape latency, faster than control (Swiss Albino mice [3]) [%] | Forelimb grip strength (in words, FIG. 1) (Swiss Albino mice [4]) | Escape latency, slower than paraxanthine (Swiss Albino mice [3]; relative to paraxanthine group) [%] |
| --- | --- | --- | --- | --- | --- | --- | --- | --- | --- |
| Cn1c(=O)[nH]c2ncn(C)c2c1=O [paraxanthine] | 8.63 ± 1.92 | improved energy and mood | 21.38 ± 1.92 | 8.63 ± 1.92 | 16.38 ± 2.33 | reversal of amnesia induced by scopolamine and improved memory and learning | 46.3 | improved strength over control | – |
| NCCS(=O)(=O)O [taurine] | – | – | 21.50 ± 2.20 | 8.50 ± 2.20 | – | – | – | – | – |
| N[C@@H](Cc1ccc(O)cc1)C(=O)O [tyrosine] | 8.88 ± 1.46 | – | – | – | 8.25 ± 1.04 | – | 30.6 | improved strength at a lesser degree | 29.3 |
